Results from paper PMC12648368 (British Journal of Clinical Pharmacology, 2025).
Entries after “also recorded” stand apart in the source; their conditions may differ. Read-outs that look alike come from different tables or passages of the source.

Columns and labels:
[1] = Effect-compartment model of intracellular PBMC concentrations, DERIVE study; type: in vivo, human; conditions: for Equilibration half‐life, t 1/2 (plasma to PBMC) / half-life / Kp: PBMC effect compartment, estimate (95% CI); for half-life / Kp: human, oral; for half-life: PBMC, read-out: Equilibration half‐life, t 1/2 (plasma to PBMC) (converted); for Kp: read-out: Pseudo‐partition coefficient, PPC (ratio of drug in PBMC to plasma)
Procedure: Pharmacokinetic sampling was conducted over four visits. […] The rifampicin dose was increased to 1200 mg once daily (QD) for 1 week. […] Dolutegravir was maintained for an additional 2 weeks. […] Blood samples were centrifuged and stored at -80 °C prior to shipment and assay at the University of Cape Town, where drug concentrations were measured using high-performance liquid chromatography with tandem mass spectrometry (HPLC MS/MS). […] Atazanavir and ritonavir pharmacokinetic models were separately developed using […] data. We tested one- and two-compartment disposition models with linear elimination, and delayed absorption modelled by a lag time or series of transit compartments. PBMC concentrations were modelled using a hypothetical effect compartment connected to the central compartment of the plasma model. An equilibration half-life (t1/2) and a pseudopartition coefficient (PPC) were used to parameterize the rate of drug entry into the PBMC compartment and its accumulation ratio between the PBMC and plasma, respectively (Figure S1).

[2] = Final atazanavir model applied to atazanavir-only data (without ritonavir) of the ACTG A5231 study
Procedure: Atazanavir was administered with or without rifampicin in three periods: 300 mg BID for 8 days (period 1), 300 mg BID with rifampicin 600 mg QD for 11 days (period 2) and 400 mg BID with rifampicin 600 mg QD for 8 days (period 3).[30] Pharmacokinetic sampling was conducted at the end of each period, with blood collected 15 min predose and at 1‐, 2‐, 3‐, 4‐, 5‐, 6‐, 8‐, 10‐, 12‐, and 24‐h postdose. Plasma samples were analysed at the University of Alabama using HPLC with UV detection (LLOQ 0.025 mg/L).[30]
The final atazanavir model, developed with DERIVE data, was applied to the A5231 dataset. We made the following adjustment to our model to account for the differences between the two studies.
All fixed parameters are estimates from DERIVE study population.

HIV‐1 = conditions: against HIV‐1; cited from earlier work
plasma proteins = conditions: cited from earlier work
[3] = Population pharmacokinetic model of plasma atazanavir and ritonavir concentrations, DERIVE study (ATV/r with or without rifampicin); conditions: for Fold‐change in CL for ATV/r BID + RIF: ATV/r 300/100 mg BID with rifampicin; for Vd / bioavailability / clearance: human, plasma, oral; for Fold‐change in CL for ATV/r QD + RIF: rifampicin 600 mg QD added to ATV/r; for Effect of increasing rifampicin dose on clearance, bioavailability / pharmacokinetics: rifampicin 1200 mg QD vs 600 mg QD, ATV/r BID
[4] = in vivo; cited from earlier work
[5] = set-up: method as in earlier work; conditions: fixed in the previously published model; cited from earlier work
clinical = conditions: human, in vivo
[6] = estimate (95% CI), listed as atazanavir
[7] = Inter compartmental clearance, typical participant 67 kg, fat‐free mass 42 kg, estimate (95% CI)
[8] = typical participant 67 kg, fat‐free mass 42 kg, estimate (95% CI)

## COC(=O)N[C@H](C(=O)N[C@@H](Cc1ccccc1)[C@@H](O)CN(Cc1ccc(-c2ccccn2)cc1)NC(=O)[C@@H](NC(=O)OC)C(C)(C)C)C(C)(C)C [Atazanavir, atazanavir]
[1]
  Equilibration half‐life, t 1/2 (plasma to PBMC): 0.963 (0.546‐1.51) h
  half-life: ~60 min
  Kp: 0.653
[1]; addition of rifampicin to the regimen
  Effect of rifampicin on PBMC equilibration t 1/2 and PPC (intracellular accumulation): did not affect the ratio of atazanavir concentration between PBMCs and plasma; also recorded: neither of which were affected; also recorded: does not affect the intracellular accumulation of atazanavir
[2]; A5231 all PK visits vs ATV/r without rifampicin (DERIVE visit 1), estimate (95% CI)
  Fold-change in CL due to absence of ritonavir: 2.13 (1.88 – 2.34) -fold
[2]; human, in vivo
  BOV in F: 58.3 (46.4 – 73.5) % CV
  BOV in MTT: 48.1 (36.9 – 63.4) % CV
  Between occasion variability (BOV) in k a: 101 (fixed) % CV
  Between subject variability in clearance: 18.8 (13.7 – 24.4) % CV
  Change in F with rifampicin: -55.3 (-64.0 – -46.2) %
  Change in ka with rifampicin: -70.8 (fixed) %
  Clearance, CL: 7.55 (fixed) L/h
  MTT longer in A5231 compared to DERIVE: 2.5 ‐fold
  Mean absorption transit time, MTT: 1.38 (1.15 – 1.61) h
  Reduction in bioavailability when rifampicin was coadministered: 55%
  Transit compartments, NN: 10 (fixed) n
  Vd: 77.3 L
  Volume of distribution (peripheral compartment): 48.9 (fixed) L
  bioavailability: 100%
  clearance: 58.5 mL/min
HIV‐1
  Protein‐adjusted in vitro 90% inhibitory concentration (PA‐IC90): 0.014 mg/L
Plasma proteins
  Bound to plasma proteins: about 86%
[3]; estimate (95% CI)
  Fold‐change in CL for ATV/r BID + RIF: 2.03 (1.82‐2.25) ‐fold
  BOV in F: 48.2 (40.7‐53.6) % CV
  BOV in MTT: 59.4 (49.3‐73.6) % CV
  Between occasion variability (BOV) in k a: 97.9 (80.8‐125) % CV
  Between subject variability in clearance: 27.6 (19.7‐36.7) % CV
  Between visit variability in clearance: 17.5 (14.4‐24.5) % CV
  Change in F for ATV/r QD + RIF: −52.5 (−62.5 −41.4) %
  Change in k a due to RIF: −67.3 (−76.2 −53.2) %
  Mean absorption transit time, MTT: 0.499 (0.429‐0.574) h
  Fold‐change in CL for ATV/r QD + RIF: 3.05 (2.67‐3.45) ‐fold
[3]; [6]
  Fold‐change in CL for ATV/r BID + RIF: 2 ‐fold
  Fold‐change in CL for ATV/r QD + RIF: 3 ‐fold
[3]; ATV/r 300/100 mg QD without rifampicin, typical participant 67 kg, fat‐free mass 42 kg, typical estimate (95% CI)
  Clearance, CL: 7.57 (6.42‐9.06) L/h
[3]; ATV/r BID with standard dose rifampicin
  Effect of doubling ATV/r dosing frequency on bioavailability: restored atazanavir bioavailability
[3]; co-medication tenofovir disoproxil fumarate
  Effect of TDF on clearance and bioavailability: affected neither
[3]; fixed in the model
  Transit compartments, NN: 10 Fixed n
[3]
  Vd: 77.5 L
  bioavailability: 100%
  Effect of increasing rifampicin dose on clearance, bioavailability / pharmacokinetics: no significant effect
[3]; [7]
  clearance: 52.2 mL/min
[3]; rifampicin added to standard ATV/r QD regimen
  Reduction of bioavailability by rifampicin: 53%
[3]; [8]
  Volume of distribution (peripheral compartment): 42.1(26.6‐79.0) L

## CC(C)c1nc(CN(C)C(=O)N[C@H](C(=O)N[C@@H](Cc2ccccc2)C[C@H](O)[C@H](Cc2ccccc2)NC(=O)OCc2cncs2)C(C)C)cs1 [Ritonavir, ritonavir]
[1]
  Equilibration half‐life, t 1/2 (plasma to PBMC): 1.40 (1.38‐1.63) h
  half-life: ~60 min
  Kp: 1.68
[4]
  Time to steady‐state concentrations: about 2 weeks
[3]; ATV/r QD + rifampicin, relative to ATV/r without rifampicin
  Bioavailability decreased to, with rifampicin: 31%
[3]; estimate (95% CI)
  BOV in F: 55.5 (48.1‐63.8) % CV
  BOV in MTT: 43.6 (37.7‐51.6) % CV
  Between occasion variability (BOV) in k a: 82.3 (67.3‐99.1) % CV
  Between subject variability in clearance: 16.4 (12.3‐21.8) % CV
  Change in F for ATV/r BID + RIF: −33.3 (−46.6 −10.9) %
  Change in F for ATV/r QD + RIF: −68.8 (−75.2 −58.5) %
  Mean absorption transit time, MTT: 0.483 (0.428‐0.545) h
  Transit compartments, NN: 12.3 (6.64‐17.7) n
[3]
  Vd: 55.4 L
  bioavailability: 100%
  Effect of increasing rifampicin dose on clearance, bioavailability / pharmacokinetics: no further effect
[3]; Clearance, CL, ATV/r 300/100 mg QD without rifampicin, typical participant 67 kg, fat‐free mass 42 kg, typical estimate (95% CI)
  clearance: 161 mL/min
[3]; [7]
  clearance: 26 mL/min
[3]; [8]
  Volume of distribution (peripheral compartment): 70.1 (39.7‐125) L

## CO[C@H]1/C=C/O[C@@]2(C)Oc3c(C)c(O)c4c(O)c(c(/C=N/N5CCN(C)CC5)c(O)c4c3C2=O)NC(=O)/C(C)=C\C=C\[C@H](C)[C@H](O)[C@@H](C)[C@@H](O)[C@@H](C)[C@H](OC(C)=O)[C@@H]1C [rifampicin]
Estimate (95% CI)
  BOV in MTT: 46.8 (40.0 – 56.8) % CV
  BOV in ka: 104 (85.3 – 136) % CV
  Between occasion variability (BOV) in F: 22.0 (17.9 – 26.3) % CV
  Between subject variability in clearance: 27.7 (22.1 – 35.2) % CV
  Mean absorption transit time, MTT: 0.502 (0.447 – 0.558) h
  Transit compartments, NN: 20.3 (15.8 – 25.9) n
human, in vivo
  Bioavailability, F: 1 (fixed) fraction
[5]
  Unbound fraction of rifampicin, fu: 0.2 (fixed) fraction
clinical
  Km: 4.9 µg/mL
  Vd: 44.7 L
  clearance: 550 mL/min
